In patent US20090143279A1 (priority 2007, published 2009):
Read-outs that look alike come from different tables or passages of the source.

What was measured:
reactive oxygen species = type: cell-based, mouse; conditions: for ROS (composite Z-score): normalized score vs mock-treated (DMSO) wells
[1] = test system: mitochondrial membrane potential; type: cell-based, mouse; conditions: for ΔΨm (composite Z-score): normalized score vs mock-treated (DMSO) wells
cytochrome c = type: cell-based, mouse; conditions: for cyt c (composite Z-score): normalized score vs mock-treated (DMSO) wells
nuOXPHOS transcripts = type: cell-based, mouse; conditions: for nucOX (composite Z-score): normalized score vs mock-treated (DMSO) wells
[2] = test system: cellular dehydrogenase activity; conditions: for MTT (composite Z-score): normalized score vs mock-treated (DMSO) wells
C2C12 myotubes = conditions: for Viability (composite Z-score): normalized score vs mock-treated (DMSO) wells
OXPHOS gene expression = type: cell-based, mouse; conditions: for GE-HTS (composite Z-score): normalized score vs mock-treated (DMSO) wells
mtOXPHOS transcripts = type: cell-based, mouse; conditions: for mitoOX (composite Z-score): normalized score vs mock-treated (DMSO) wells
[3] = composite Z-score vs DMSO, Conc 20 μM
[4] = composite Z-score vs DMSO, Conc 20.38 μM
[5] = composite Z-score vs mock-treated (DMSO) wells, Conc 20 μM
[6] = 20 μM, composite Z-score vs DMSO
[7] = 27.18 μM, composite Z-score vs DMSO
[8] = normalized composite Z-score vs mock-treated (DMSO) wells, Conc 20 μM

In the case of `CCOc1nc2cccc(C(=O)OC(C)OC(=O)OC3CCCCC3)c2n1Cc1ccc(-c2ccccc2-c2nn[nH]n2)cc1` (centres unmarked) [candesartan cilextil], the ROS (reactive oxygen species; [3]) is reported as 1.855, the ΔΨm [1, 3] is reported as −0.743 and the cyt c (cytochrome c; [3]) is reported as 1.328. It also gave a nucOX (nuOXPHOS transcripts; [3]) of −0.259, an MTT [2, 3] of −1.116 and a Viability (C2C12 myotubes; [3]) of 1.842. For the same compound, the GE-HTS (OXPHOS gene expression; [3]) was −0.432 and the mitoOX (mtOXPHOS transcripts; [3]) was −0.658.
`C[C@]12CCC(=O)C=C1C=C[C@@H]1[C@@H]2CC[C@@]2(C)[C@H]1CC[C@@]2(O)CCC(=O)O` [canrenoic acid] was tested, and the “ROS (composite Z-score)” value (reactive oxygen species; Conc 20 μM) was 0.803, the “ΔΨm (composite Z-score)” value ([1]; Conc 20 μM) was −0.749 and the “cyt c (composite Z-score)” value (cytochrome c; Conc 20 μM) was 0.732. The “nucOX (composite Z-score)” value (nuOXPHOS transcripts; Conc 20 μM) was 0.154, the “MTT (composite Z-score)” value ([2]; Conc 20 μM) was −0.973 and the “Viability (composite Z-score)” value (C2C12 myotubes; Conc 20 μM) was −0.004. For the same compound, the “GE-HTS (composite Z-score)” value (OXPHOS gene expression; Conc 20 μM) was 0.072 and the “mitoOX (composite Z-score)” value (mtOXPHOS transcripts; Conc 20 μM) was −0.047.
Work on `C[C@@]12C(=O)OC(=O)[C@]1(C)[C@H]1CC[C@@H]2O1` [cantharidin] yielded an ROS (reactive oxygen species; [3]) of −2.764, an ROS (reactive oxygen species; [4]) of −2.786 and a ΔΨm [1, 3] of −2.513. The ΔΨm [1, 4] was −2.722, the cyt c (cytochrome c; [3]) was −5.284 and the cyt c (cytochrome c; [4]) was −5.104. For the same compound, the nucOX (nuOXPHOS transcripts; [3]) was 0.477, the nucOX (nuOXPHOS transcripts; [4]) was 0.144 and the MTT [2, 3] was −5.729. It also gave an MTT [2, 4] of −5.122, a Viability (C2C12 myotubes; [3]) of −4.063 and a Viability (C2C12 myotubes; [4]) of −4.714. For the same compound, the GE-HTS (OXPHOS gene expression; [3]) was 1.196, the GE-HTS (OXPHOS gene expression; [4]) was 0.217 and the mitoOX (mtOXPHOS transcripts; [3]) was 2.498. The mitoOX (mtOXPHOS transcripts; [4]) was 0.310.
With `COC(=O)C[C@H]1C(C)(C)C(=O)[C@@H]2CC3=C(CC[C@]4(C)C3=CC(=O)O[C@H]4c3ccoc3)[C@@]1(C)C2=O` [carapin-8 (9)-ene] the “ROS (composite Z-score)” value (reactive oxygen species; Conc 20 μM) was 0.766, the “ΔΨm (composite Z-score)” value ([1]; Conc 20 μM) was −0.223 and the “cyt c (composite Z-score)” value (cytochrome c; Conc 20 μM) was 0.412. The “nucOX (composite Z-score)” value (nuOXPHOS transcripts; Conc 20 μM) was −0.003, the “MTT (composite Z-score)” value ([2]; Conc 20 μM) was −1.272 and the “Viability (composite Z-score)” value (C2C12 myotubes; Conc 20 μM) was 1.357. For the same compound, the “GE-HTS (composite Z-score)” value (OXPHOS gene expression; Conc 20 μM) was 0.121 and the “mitoOX (composite Z-score)” value (mtOXPHOS transcripts; Conc 20 μM) was 0.284.
`COC(=O)C[C@H]1C(C)(C)C(=O)[C@@H]2CC3C4=CC(=O)O[C@@H](c5ccoc5)[C@]4(C)CC[C@@H]3[C@@]1(C)C2=O` (some centres unmarked) [carapin] gave an ROS (reactive oxygen species; [5]) of 1.897, a ΔΨm [1, 5] of −0.524 and a cyt c (cytochrome c; [5]) of −0.096. It also gave a nucOX (nuOXPHOS transcripts; [5]) of 0.665, an MTT [2, 5] of −0.925 and a Viability (C2C12 myotubes; [5]) of 1.424. The GE-HTS (OXPHOS gene expression; [5]) was 0.512 and the mitoOX (mtOXPHOS transcripts; [5]) was 0.058.
`C[N+](C)(C)CCOC(N)=O` [carbachol] was tested, and the ROS (reactive oxygen species; [6]) was 1.304, the ROS (reactive oxygen species; [7]) was 1.223 and the ΔΨm [1, 6] was −0.965. The ΔΨm [1, 7] was −0.296, the cyt c (cytochrome c; [6]) was −0.154 and the cyt c (cytochrome c; [7]) was −0.202. For the same compound, the nucOX (nuOXPHOS transcripts; [6]) was 0.273, the nucOX (nuOXPHOS transcripts; [7]) was −0.176 and the MTT [2, 6] was −1.002. The MTT [2, 7] was 0.905, the Viability (C2C12 myotubes; [6]) was −0.502 and the Viability (C2C12 myotubes; [7]) was −0.239. It also gave a GE-HTS (OXPHOS gene expression; [6]) of 0.355, a GE-HTS (OXPHOS gene expression; [7]) of −0.060 and a mitoOX (mtOXPHOS transcripts; [6]) of 0.391. For the same compound, the mitoOX (mtOXPHOS transcripts; [7]) was 0.191.
Work on `COC(=O)N/N=C/c1c[n+]([O-])c2ccccc2[n+]1[O-]` [carbadox] yielded an ROS (reactive oxygen species; [3]) of −0.079, a ΔΨm [1, 3] of −1.394 and a cyt c (cytochrome c; [3]) of −0.250. The nucOX (nuOXPHOS transcripts; [3]) was −0.599, the MTT [2, 3] was −1.334 and the Viability (C2C12 myotubes; [3]) was −0.905. For the same compound, the GE-HTS (OXPHOS gene expression; [3]) was −0.802 and the mitoOX (mtOXPHOS transcripts; [3]) was −1.076.
`CC1(C)S[C@@H]2[C@H](NC(=O)C(C(=O)O)c3ccccc3)C(=O)N2[C@H]1C(=O)O` (some centres unmarked) [carbenicillin] was tested, and the ROS (reactive oxygen species; [6]) was 2.042, the ΔΨm [1, 6] was 0.298 and the cyt c (cytochrome c; [6]) was −0.074. It also gave a nucOX (nuOXPHOS transcripts; [6]) of −0.835, an MTT [2, 6] of −0.565 and a Viability (C2C12 myotubes; [6]) of −0.524. For the same compound, the GE-HTS (OXPHOS gene expression; [6]) was −0.869 and the mitoOX (mtOXPHOS transcripts; [6]) was −0.823.
In the case of `Cc1c(C(=O)O)c(O)cc2c1C(=O)c1c(O)c([C@@H]3O[C@H](CO)[C@@H](O)[C@H](O)[C@H]3O)c(O)c(O)c1C2=O` [carminic acid], the ROS (reactive oxygen species; [3]) is reported as 0.083, the ΔΨm [1, 3] is reported as −0.378 and the cyt c (cytochrome c; [3]) is reported as −0.243. The nucOX (nuOXPHOS transcripts; [3]) was −0.662, the MTT [2, 3] was −1.295 and the Viability (C2C12 myotubes; [3]) was −0.905. The GE-HTS (OXPHOS gene expression; [3]) was −0.727 and the mitoOX (mtOXPHOS transcripts; [3]) was −0.671.
`C=C1CC[C@H]2O[C@]2(C)CC[C@@H]2[C@@H]1CC2(C)C` [carylophyllene oxide] was tested, and the ROS (reactive oxygen species; [8]) was 0.636, the ΔΨm [1, 8] was −0.246 and the cyt c (cytochrome c; [8]) was 0.321. The nucOX (nuOXPHOS transcripts; [8]) was 0.060, the MTT [2, 8] was −0.713 and the Viability (C2C12 myotubes; [8]) was −0.547. For the same compound, the GE-HTS (OXPHOS gene expression; [8]) was −0.087 and the mitoOX (mtOXPHOS transcripts; [8]) was −0.324.
`CC(=O)Oc1cc(OC(C)=O)c2c(c1)O[C@H](c1ccc(OC(C)=O)c(OC(C)=O)c1)[C@@H](OC(C)=O)C2` [catechin pentaacetate] gave an ROS (reactive oxygen species; [8]) of −1.649, a ΔΨm [1, 8] of −2.799 and a cyt c (cytochrome c; [8]) of 0.425. For the same compound, the nucOX (nuOXPHOS transcripts; [8]) was 0.314, the MTT [2, 8] was −1.126 and the Viability (C2C12 myotubes; [8]) was 0.652. The GE-HTS (OXPHOS gene expression; [8]) was 0.269 and the mitoOX (mtOXPHOS transcripts; [8]) was 0.161.
